The molecules below were run on HMPV clinical isolate A2 strain TN 94-49 (assay: HMPV antiviral assay, Method 2 (LLC-MK2 cells with CP-100-356, ATP-Lite)). Settings: human metapneumovirus, 168 h; hMPV A2 TN/94-49, LLC-MK2 cells with 4 μM CP-100-356, 7 days, ATP-Lite.
Type: cell-based
Method in brief: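 EC50 comes from a four-parameter fit of percent cell viability (ATP-Lite, normalized to virus-only and cell-only wells) after 7 days at 37 °C. Infection used HMPV A2 TN 94-49 at MOI 0.16 in LLC-MK2 cells, with 2 μM P-gp inhibitor CP-100-356 and 2 μg/mL TPCK-trypsin final; dose range 200 nM top, 2.5-fold, 10 points, duplicate.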

EC50 [nM] | SMILES
> 200 | COc1cc(C(=O)NC[C@](O)(c2cc3c(c(-c4ccn5nc(C)cc5c4)n2)OC[C@]3(C)C(N)=O)C2CC2)cc2cn(C3CC3)nc12 [Example 838]
< 200 | COc1cccc2c1ccn2-c1nc([C@@](O)(CNC(=O)c2cc(OC)c3nn(C4CC4)cc3c2)C2CC2)cc2c1OC[C@]2(C)C(N)=O [Example 839]
> 200 | COc1cc(C(=O)NC[C@@](O)(c2cc3c(c(-n4ccc5cnccc54)n2)OC[C@]3(C)C(N)=O)C2CC2)cc2cn(C3CC3)nc12 [Example 840]
< 200 | COc1cc(C(=O)NC[C@](O)(c2cc3c(c(-n4ccc5cnccc54)n2)OC[C@]3(C)C(N)=O)C2CC2)cc2cn(C3CC3)nc12 [Example 841]
< 200 | COc1cc(C(=O)NC[C@](O)(c2cc3c(c(-n4ccc5ccccc54)n2)OC[C@]3(C)C(N)=O)C(F)(F)F)cc2cn(C(F)F)nc12 [Example 843]
< 200 | COc1cc(C(=O)NC[C@](O)(c2cc3c(c(-c4cc(C(F)(F)F)ncc4F)n2)OC[C@]3(C)C(N)=O)C(F)(F)F)cc2cn(C3CC3)nc12 [Example 845]
> 200 | COc1cc(C(=O)NC[C@](O)(c2cc3c(c(-n4ccc5c(C(F)(F)F)cccc54)n2)OC[C@]3(C)C(N)=O)C2CC2)cc2cn(C3CC3)nc12 [Example 869]
> 200 | COc1cc(C(=O)NCC(O)(c2cc3c(c(-c4cc(C(F)(F)F)ncc4Cl)n2)OC[C@]3(C)C(N)=O)C2CC2)cc2cn(C3CC3)nc12 (stereo partly drawn) [Example 870]
< 200 | COc1cc(C(=O)NC[C@](O)(c2cc3c(c(-c4ccnc(C)c4Cl)n2)OC[C@]3(C)C(N)=O)C2CC2)cc2cn(C3CC3)nc12 [Example 871]
> 200 | COc1nccc(-c2nc([C@](O)(CNC(=O)c3cc(OC)c4nn(C5CC5)cc4c3)c3cccc(F)c3)cc3c2OC[C@]3(C)C(N)=O)c1Cl [Example 876]
< 200 | COc1nccc(-c2nc([C@@](O)(CNC(=O)c3cc(OC)c4nn(C5CC5)cc4c3)c3cccc(F)c3)cc3c2OC[C@]3(C)C(N)=O)c1Cl [Example 877]
> 200 | COc1cc(C(=O)NC[C@](O)(c2cc3c(c(-c4ccnc(C)c4Cl)n2)OC[C@]3(C)C(N)=O)C(F)(F)F)cc2cn(C3CC3)nc12 [Example 883]
> 200 | COc1nccc(-c2nc([C@@](O)(CNC(=O)c3cc(OC)n4nc(C5CC5)cc4c3)C(C)C)cc3c2OC[C@]3(C)C(N)=O)c1Cl [Example 890]
> 200 | COc1nccc(-c2nc([C@@](O)(CNC(=O)c3cc(OC)c4nc(C5CC5)cn4c3)C(C)C)cc3c2OC[C@]3(C)C(N)=O)c1Cl [Example 891]
< 200 | COc1nccc(-c2nc([C@@](O)(CNC(=O)c3cc(OC4CC4)c4nn(C5(F)CC5)cc4c3)C(C)C)cc3c2OC[C@]3(C)C(N)=O)c1Cl [Example 892]
< 200 | COc1nccc(-c2nc([C@@](O)(CNC(=O)c3cc(OC4CC4)c4nn(C5CC5)cc4c3)C(C)C)cc3c2OC[C@]3(C)C(N)=O)c1Cl [Example 893]
> 200 | COc1nccc(-c2nc([C@@](O)(CNC(=O)c3cc(OC4CC4)c4nn(C(F)F)cc4c3)C(C)C)cc3c2OC[C@]3(C)C(N)=O)c1Cl [Example 894]
< 200 | COc1nccc(-c2nc([C@@](O)(CNC(=O)c3cc(OC)c4nn(C5(F)CC5)cc4c3)C3CC(F)(F)C3)cc3c2OC[C@]3(C)C(N)=O)c1Cl [Example 896]

EC50 [nM] | SMILES
> 200 | COc1nccc(-c2nc([C@@](O)(CNC(=O)c3cc(OC)c4nc(C5CC5)oc4c3)C3CC(F)(F)C3)cc3c2OC[C@]3(C)C(N)=O)c1Cl [Example 897]
> 200 | COc1nccc(-c2nc([C@@](O)(CNC(=O)c3cc(OC4CC4)c4nn(C(F)F)cc4c3)C3CC(F)(F)C3)cc3c2OC[C@]3(C)C(N)=O)c1Cl [Example 898]
> 200 | COc1cc(C(=O)NC[C@](O)(c2cc3c(c(-n4ncc5c(F)cccc54)n2)OC[C@]3(C)C(N)=O)C2CC2)cc2cc(Cl)c(C)nc12 [Example 899]
> 200 | COc1cc(-c2nc([C@@](O)(CNC(=O)c3cc(OC4CC4)c4nn(C5CC5)cc4c3)c3ccccc3)cc3c2OC[C@]3(C)C(N)=O)c(F)cn1 [Example 900]
< 200 | COc1nccc(-c2nc([C@@](O)(CNC(=O)c3cc(OC4CC4)c4nn(C(F)F)cc4c3)c3ccccc3)cc3c2OC[C@]3(C)C(N)=O)c1Cl [Example 901]
> 200 | COc1nccc(-c2nc([C@@](O)(CNC(=O)c3cc(OC4CC4)c4nn(C(F)F)cc4c3)c3cccc(F)c3)cc3c2OC[C@]3(C)C(N)=O)c1Cl [Example 902]
> 200 | COc1cc(C(=O)NC[C@](O)(c2cc3c(c(-c4ccnc(C5CCOCC5)c4Cl)n2)OC[C@]3(C)C(N)=O)C2CC2)cc2cn(C3CC3)nc12 [Example 903]
> 200 | COc1cc(C(=O)NC[C@](O)(c2cc3c(c(-c4ccnc(C5CCOCC5)c4Cl)n2)OC[C@]3(C)C(N)=O)C2CC2)cc2cn(C(F)F)nc12 [Example 904]
> 200 | COc1cc(C(=O)NC[C@](O)(c2cc3c(c(-c4ccnc(C5CCOCC5)c4Cl)n2)OC[C@]3(C)C(N)=O)C2CC2)cc2cn(C3(F)CC3)nc12 [Example 905]
> 200 | COc1cc(C(=O)NC[C@](O)(c2cc3c(c(-c4ccnc(C5CCOCC5)c4Cl)n2)OC[C@]3(C)C(N)=O)C2CC2)cc2oc(C3CC3)nc12 [Example 906]
> 200 | COc1cc(C(=O)NC[C@](O)(c2cc3c(c(-c4ccnc(C(C)C)c4Cl)n2)OC[C@]3(C)C(N)=O)C2CC2)cc2cn(C(F)F)nc12 [Example 907]
> 200 | COc1cc(C(=O)NC[C@](O)(c2cc3c(c(-c4ccnc(C(C)C)c4Cl)n2)OC[C@]3(C)C(N)=O)C2CC2)cc2cn(C3(F)CC3)nc12 [Example 908]
> 200 | COc1cc(C(=O)NC[C@](O)(c2cc3c(c(-c4ccnc(C(C)C)c4Cl)n2)OC[C@]3(C)C(N)=O)C2CC2)cc2oc(C3CC3)nc12 [Example 909]
> 200 | COc1cc(C(=O)NC[C@](O)(c2cc3c(c(-c4ccnc(C(C)C)c4Cl)n2)OC[C@]3(C)C(N)=O)C2CC2)cc2cc(C3CC3)nn12 [Example 910]
> 200 | COc1cc(C(=O)NC[C@](O)(c2cc3c(c(-c4ccnc(C(C)C)c4Cl)n2)OC[C@]3(C)C(N)=O)C2CC2)cn2cc(C3CC3)nc12 [Example 911]
> 200 | CC(C)c1nccc(-c2nc([C@@](O)(CNC(=O)c3cc(OC4CC4)c4nn(C5(F)CC5)cc4c3)C3CC3)cc3c2OC[C@]3(C)C(N)=O)c1Cl [Example 912]
> 200 | CC(C)c1nccc(-c2nc([C@@](O)(CNC(=O)c3cc(OC4CC4)c4nn(C5CC5)cc4c3)C3CC3)cc3c2OC[C@]3(C)C(N)=O)c1Cl [Example 913]
> 200 | CC(C)c1nccc(-c2nc([C@@](O)(CNC(=O)c3cc(OC4CC4)c4nn(C(F)F)cc4c3)C3CC3)cc3c2OC[C@]3(C)C(N)=O)c1Cl [Example 914]
